Paper PMC10343299, “S-Ethyl-Isothiocitrullin-Based Dipeptides and 1,2,4-Oxadiazole Pseudo-Dipeptides: Solid Phase Synthesis and Evaluation as NO Synthase Inhibitors” (Molecules, 2023)
Like-named read-outs stand apart in the source and are kept apart here.

How the values were obtained:
[1] = target: T1, mouse iNOS (Mus musculus, UniProt P29477); assay: NOS inhibition, oxyhemoglobin (hemoglobin capture) test, recombinant iNOS; format: biochemical; settings: recombinant enzyme, 20 µM arginine, triplicate, NI = <50% inhibition at 100 μM; for inhibition at 100 µM: read-out: IC50 (μM) iNOS (Mouse)
T1 construct: Full-length recombinant rat nNOS, mouse iNOS, bovine eNOS; made in house; host or cells: Escherichia coli
T1 sequence (P29477 1-1144): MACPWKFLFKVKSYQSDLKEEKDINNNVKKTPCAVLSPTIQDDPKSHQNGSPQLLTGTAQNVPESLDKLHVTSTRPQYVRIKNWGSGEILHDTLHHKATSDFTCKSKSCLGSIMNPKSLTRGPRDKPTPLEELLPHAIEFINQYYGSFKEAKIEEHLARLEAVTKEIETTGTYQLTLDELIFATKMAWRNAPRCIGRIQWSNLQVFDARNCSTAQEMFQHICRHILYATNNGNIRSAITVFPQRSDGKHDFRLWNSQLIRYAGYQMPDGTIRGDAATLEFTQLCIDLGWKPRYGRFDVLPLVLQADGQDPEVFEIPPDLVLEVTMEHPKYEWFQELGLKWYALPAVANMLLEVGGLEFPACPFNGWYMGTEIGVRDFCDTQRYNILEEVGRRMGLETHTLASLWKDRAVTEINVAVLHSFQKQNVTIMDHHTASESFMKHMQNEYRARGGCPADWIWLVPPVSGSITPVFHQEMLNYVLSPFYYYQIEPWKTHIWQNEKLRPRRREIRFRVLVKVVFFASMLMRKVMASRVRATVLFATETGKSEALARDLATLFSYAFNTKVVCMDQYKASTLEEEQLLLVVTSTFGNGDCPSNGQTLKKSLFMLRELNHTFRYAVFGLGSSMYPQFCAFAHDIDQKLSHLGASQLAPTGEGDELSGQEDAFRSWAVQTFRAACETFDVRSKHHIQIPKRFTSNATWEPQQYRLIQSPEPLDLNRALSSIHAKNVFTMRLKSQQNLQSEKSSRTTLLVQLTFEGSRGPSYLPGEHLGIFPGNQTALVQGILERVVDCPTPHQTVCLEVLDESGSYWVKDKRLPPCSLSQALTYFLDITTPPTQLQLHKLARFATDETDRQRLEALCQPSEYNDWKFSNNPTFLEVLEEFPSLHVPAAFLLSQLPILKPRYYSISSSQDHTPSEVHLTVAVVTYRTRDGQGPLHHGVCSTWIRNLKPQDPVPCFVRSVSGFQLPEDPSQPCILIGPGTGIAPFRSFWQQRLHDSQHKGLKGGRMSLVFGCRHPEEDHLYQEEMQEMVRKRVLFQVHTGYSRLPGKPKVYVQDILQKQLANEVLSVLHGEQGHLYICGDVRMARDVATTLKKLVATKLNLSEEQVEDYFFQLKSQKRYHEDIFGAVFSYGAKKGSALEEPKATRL
Protocol: (§1) The inhibitory effects of all compounds against the three recombinant NOSs (rat nNOS, mouse iNOS, and bovine eNOS) were evaluated in 96-well plates using the oxyhemoglobin test. A first screening at 100 and 10 μM was performed, and the IC50 values were measured for compounds showing more than 50% inhibition at 100 μM (Table 1 and Table 2).
(§2) Full-length recombinant rat nNOS, mouse iNOS, bovine eNOS, and the heme domains of rat brain nNOS and mouse iNOS were expressed in Escherichia coli and purified as described previously.
(§3) NOS catalytic activity was measured using the hemoglobin capture assay. The test was performed at 30 °C in 96-well microplates using a final volume of 200 µL. The assay mixture contained 100 µM NADPH, 10 µM BH4, 6 µM HbO2, 100 µM DTT, 5 µM FAD, 5 µM FMN, 10 µM (nNOS and eNOS), or 20 µM (iNOS) arginine, all in a 100 mM Hepes buffer, pH 7.5, and, for constitutive n- and e-NOS, 10 µg/mL calmodulin, and 1 mM CaCl2. The studied compounds were introduced as 2 μL of ×100 concentrated solutions in DMSO, and the control experiments were performed with DMSO or the buffer only. The kinetics of NO production were measured at 401 nm using an Infinite F500 microplate reader (Tecan, Singapore).

[2] = test system: INS-1 cells (nNOS); assay: Glucose-induced insulin secretion; format: cell-based; settings: 5.6 mM glucose, no IL-1β, 1 h, compounds 500 µM to 5 mM, L-NAME 5 mM
Protocol: Indeed, pancreatic β-cells are known to constitutively express the nNOS isoform, which negatively modulates glucose-induced insulin secretion.
The insulin-secreting cell line INS-1 (a gift from Prof. C. Wolheim, Geneva, Switzerland) was cultured in RPMI-1640 supplemented with 10% FCS, 100 units/mL penicillin, 100 µg/mL streptomycin, 2 mM L-glutamine, 10 mM HEPES, 1 mM sodium pyruvate, and […] 2-mercaptoethanol, according to M. Asfari et al.’s method.
The functional effects of compounds were evaluated on INS-1 cells. Cells were preincubated for 1 h at 37 °C in a Krebs–Ringer bicarbonate buffer (108 mM NaCl, 1.19 mM KH2PO4, 4.74 mM KCl, 2.54 mM CaCl2, 1.19 mM MgSO4·7H2O, and 18 mM NaHCO3) containing 2 g/L BSA in the absence of glucose. After removal of the medium, the cells were stimulated for another hour at 37°C in the same buffer in the presence of 5.6 mM glucose and the presence of increasing concentrations of L-NAME or compounds (from 500 µM to 5 mM). At the end of the incubation period, the medium was collected, and the insulin was measured using an insulin high-range assay kit (CisBio, Codolet, France). Data are expressed as means ± SEM of the experiments (indicated in the result part).

[3] = target: T2, rat nNOS (Rattus norvegicus, UniProt P29476); assay: NOS inhibition, oxyhemoglobin (hemoglobin capture) test, recombinant nNOS; format: biochemical; settings: for IC50: recombinant enzyme, 10 µM arginine, triplicate, NI = <50% inhibition at 100 μM
T2 construct: Full-length recombinant rat nNOS, mouse iNOS, bovine eNOS; made in house; host or cells: Escherichia coli
Protocol: as §1, §2, §3

[4] = target: T3, bovine eNOS (Bos taurus, UniProt P29473); assay: NOS inhibition, oxyhemoglobin (hemoglobin capture) test, recombinant eNOS; format: biochemical; settings: recombinant enzyme, 10 µM arginine, triplicate, NI = <50% inhibition at 100 μM, read-out: IC50 (μM) eNOS (Bovine)
T3 construct: Full-length recombinant rat nNOS, mouse iNOS, bovine eNOS; made in house; host or cells: Escherichia coli

[5] = test system: RAW 264.7 cells; assay: Cell viability, MTT assay; format: cell-based, murine
Protocol: Cell viability was evaluated in the murine macrophage RAW 264.7 cells using an MTT assay for compounds 18, 21, 26, and 30. This experiment was performed without or with LPS (1 µg/mL), which induces iNOS expression (Figure S1). […] Compound 30 only killed 20% of the cells at 500 μM (Figure S1A). In the presence of LPS (1 µg/mL), cell viability was reduced by 30% due to the inhibition by NO of key enzymes involved in cell metabolism (Figure S1B).
The macrophage cell line RAW 264.7 (a gift from Dr. A. Blangy, Montpellier, France) was cultured in Dulbecco’s Modified Eagle’s Medium (DMEM) supplemented with 10% FCS, 100 units/mL penicillin, 100 µg/mL streptomycin, and 2 mM L-glutamine.
Cellular NO production was measured using the Griess reagent (Sigma-Aldrich), which evaluates the nitrite content in culture media. Cellular toxicity was estimated by the MTT assay (Sigma-Aldrich) in RAW 264.7 cells after the induction (or not) of iNOS by LPS, according to the manufacturer’s recommendations.

[6] = target: T4, oxygenase domain of iNOS (iNOSoxy) (Mus musculus, UniProt P29477); assay: UV-visible difference spectroscopy titration of iNOSoxy; format: binding; settings: UV/Vis difference spectroscopy, ± SD, three experiments; read-out: Apparent equilibrium constant Ks iNOSoxy
T4 construct: the oxygenase domain of nNOS (nNOSoxy) and iNOS (iNOSoxy); made in house; host or cells: Escherichia coli
T4 sequence (P29477 1-498 limits assumed): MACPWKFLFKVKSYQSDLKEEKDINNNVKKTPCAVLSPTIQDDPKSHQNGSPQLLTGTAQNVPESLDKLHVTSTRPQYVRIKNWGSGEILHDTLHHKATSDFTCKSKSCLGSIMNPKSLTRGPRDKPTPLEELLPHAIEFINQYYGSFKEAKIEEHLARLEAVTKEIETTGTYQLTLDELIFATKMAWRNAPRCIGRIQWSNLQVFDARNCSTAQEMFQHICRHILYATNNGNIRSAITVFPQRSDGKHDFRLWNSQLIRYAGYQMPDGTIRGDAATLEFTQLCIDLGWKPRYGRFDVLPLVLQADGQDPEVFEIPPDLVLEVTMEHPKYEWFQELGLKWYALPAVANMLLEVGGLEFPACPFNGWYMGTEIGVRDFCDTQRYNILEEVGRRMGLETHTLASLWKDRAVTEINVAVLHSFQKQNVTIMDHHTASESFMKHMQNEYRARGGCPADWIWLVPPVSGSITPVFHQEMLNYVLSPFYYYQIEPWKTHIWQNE
Text: (§4) We performed UV–visible difference spectroscopy to analyze the interaction mode of some inhibitors with the heme-active site of NOS [54]. We have studied the effects of dipeptide-like compounds 7, 17, 19, 23, and 27 and 1,2,4-oxadiazole 35 on the UV–visible spectra of the oxygenase domain of nNOS (nNOSoxy) and iNOS (iNOSoxy). As expected, when added stepwise to n- and iNOSoxy, all selected compounds elicited different spectra with a trough at ~425 nm and a peak at ~395 nm, similar to the substrate L-arginine. This profile is characteristic of type I interactions, meaning that they are bound in close proximity to the heme prosthetic group and shifted the spin state equilibrium to the pentacoordinated heme–Fe^III state. Double reverse plotting of the differences in absorbance between the peak at ~395 nm and valley at ~425 nm (ΔA395–425 nm) as a function of the concentration of the added compounds allowed calculating apparent binding constants (Ks) (Table 3). The reference inhibitor SEITU [55] tightly bound both NOS isoforms with high affinity but no selectivity. With the exception of the dipeptide-like 27 and the heterocyclic analog 35, which similarly interacted with both proteins, other compounds preferentially bound nNOSoxy over iNOSoxy with apparent affinities close to SEITU for this isoform.
as §2
(§5) This study was performed as previously described.

[7] = target: T5, oxygenase domain of nNOS (nNOSoxy) (Rattus norvegicus, UniProt P29476); assay: UV-visible difference spectroscopy titration of nNOSoxy; format: binding; settings: UV/Vis difference spectroscopy, ± SD, three experiments; read-out: Apparent equilibrium constant Ks nNOSoxy
T5 construct: the oxygenase domain of nNOS (nNOSoxy) and iNOS (iNOSoxy); made in house; host or cells: Escherichia coli
Text: as §4, §2, §5

[8] = test system: nNOS; design: method as in PMID 32027778; settings: Figure 1; previously described compounds; cited from earlier work
[9] = test system: iNOS; design: method as in PMID 32027778; settings: Figure 1; previously described compounds; cited from earlier work
[10] = test system: eNOS; design: method as in PMID 32027778; settings: Figure 1; previously described compounds; cited from earlier work

T2 sequence (P29476 whole entry): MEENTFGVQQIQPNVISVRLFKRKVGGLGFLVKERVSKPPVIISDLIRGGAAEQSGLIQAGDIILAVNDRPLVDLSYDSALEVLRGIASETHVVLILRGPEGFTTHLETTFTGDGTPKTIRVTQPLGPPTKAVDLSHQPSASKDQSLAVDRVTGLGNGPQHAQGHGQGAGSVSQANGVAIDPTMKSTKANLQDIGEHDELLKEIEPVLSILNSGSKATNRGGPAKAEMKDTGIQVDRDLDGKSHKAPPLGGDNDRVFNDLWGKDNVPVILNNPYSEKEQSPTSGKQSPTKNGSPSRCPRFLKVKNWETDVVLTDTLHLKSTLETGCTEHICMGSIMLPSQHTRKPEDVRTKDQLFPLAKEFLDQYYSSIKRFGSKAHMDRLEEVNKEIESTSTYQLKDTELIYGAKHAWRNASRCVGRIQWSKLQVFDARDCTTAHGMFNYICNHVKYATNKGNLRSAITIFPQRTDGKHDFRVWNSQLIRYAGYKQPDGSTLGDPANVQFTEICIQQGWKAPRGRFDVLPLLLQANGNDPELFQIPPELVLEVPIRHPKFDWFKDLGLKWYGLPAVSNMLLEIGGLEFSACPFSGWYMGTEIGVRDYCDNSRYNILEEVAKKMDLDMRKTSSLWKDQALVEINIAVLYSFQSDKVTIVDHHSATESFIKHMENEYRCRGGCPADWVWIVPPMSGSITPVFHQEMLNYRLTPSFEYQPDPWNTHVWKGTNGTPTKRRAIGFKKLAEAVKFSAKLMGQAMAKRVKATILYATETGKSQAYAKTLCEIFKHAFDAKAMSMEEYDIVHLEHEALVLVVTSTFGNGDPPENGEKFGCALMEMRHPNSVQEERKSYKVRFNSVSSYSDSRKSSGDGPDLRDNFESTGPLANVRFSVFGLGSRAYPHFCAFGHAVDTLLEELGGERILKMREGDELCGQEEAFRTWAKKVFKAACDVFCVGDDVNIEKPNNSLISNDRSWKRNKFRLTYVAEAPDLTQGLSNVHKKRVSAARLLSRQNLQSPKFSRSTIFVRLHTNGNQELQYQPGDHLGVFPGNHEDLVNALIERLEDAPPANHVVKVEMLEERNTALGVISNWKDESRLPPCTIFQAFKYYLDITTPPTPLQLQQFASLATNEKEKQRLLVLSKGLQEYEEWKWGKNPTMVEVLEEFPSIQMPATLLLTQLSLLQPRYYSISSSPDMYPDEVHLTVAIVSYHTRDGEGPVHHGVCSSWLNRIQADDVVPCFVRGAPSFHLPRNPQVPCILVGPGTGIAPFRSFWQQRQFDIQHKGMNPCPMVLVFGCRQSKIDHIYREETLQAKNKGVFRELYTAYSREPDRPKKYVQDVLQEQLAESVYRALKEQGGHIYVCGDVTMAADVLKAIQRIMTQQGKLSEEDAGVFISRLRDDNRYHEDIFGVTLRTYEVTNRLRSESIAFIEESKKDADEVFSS
T3 sequence (P29473 whole entry): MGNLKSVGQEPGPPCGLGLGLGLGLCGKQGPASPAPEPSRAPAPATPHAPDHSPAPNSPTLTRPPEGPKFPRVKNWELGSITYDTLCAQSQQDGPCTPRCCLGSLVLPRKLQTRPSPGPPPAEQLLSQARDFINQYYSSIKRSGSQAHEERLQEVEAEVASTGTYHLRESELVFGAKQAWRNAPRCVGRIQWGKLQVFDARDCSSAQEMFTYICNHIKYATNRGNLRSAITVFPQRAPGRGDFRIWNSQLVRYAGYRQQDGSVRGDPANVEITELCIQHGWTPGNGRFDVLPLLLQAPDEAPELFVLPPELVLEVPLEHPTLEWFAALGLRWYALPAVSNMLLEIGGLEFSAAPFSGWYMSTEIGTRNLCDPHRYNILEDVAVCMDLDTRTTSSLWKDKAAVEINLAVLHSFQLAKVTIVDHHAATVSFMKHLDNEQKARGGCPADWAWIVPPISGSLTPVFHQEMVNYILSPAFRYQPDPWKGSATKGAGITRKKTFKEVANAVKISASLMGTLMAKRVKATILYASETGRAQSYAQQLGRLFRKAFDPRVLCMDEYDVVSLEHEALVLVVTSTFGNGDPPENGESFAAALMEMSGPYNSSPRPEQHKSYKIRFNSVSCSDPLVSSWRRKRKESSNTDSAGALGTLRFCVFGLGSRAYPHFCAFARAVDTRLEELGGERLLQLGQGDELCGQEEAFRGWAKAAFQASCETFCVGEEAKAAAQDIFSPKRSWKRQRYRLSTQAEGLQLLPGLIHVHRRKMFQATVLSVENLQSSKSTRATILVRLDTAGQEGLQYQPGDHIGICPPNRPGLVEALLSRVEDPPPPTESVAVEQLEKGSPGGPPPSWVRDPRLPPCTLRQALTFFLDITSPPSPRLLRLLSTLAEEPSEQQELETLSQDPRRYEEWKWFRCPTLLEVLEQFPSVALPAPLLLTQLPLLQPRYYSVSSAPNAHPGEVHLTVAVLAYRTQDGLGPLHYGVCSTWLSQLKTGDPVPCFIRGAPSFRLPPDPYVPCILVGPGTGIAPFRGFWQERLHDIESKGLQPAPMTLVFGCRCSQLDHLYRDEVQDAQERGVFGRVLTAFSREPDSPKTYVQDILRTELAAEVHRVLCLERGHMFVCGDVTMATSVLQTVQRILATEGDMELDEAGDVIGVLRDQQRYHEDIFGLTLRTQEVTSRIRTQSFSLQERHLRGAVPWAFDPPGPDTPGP
T5 sequence (P29476 1-720 limits assumed): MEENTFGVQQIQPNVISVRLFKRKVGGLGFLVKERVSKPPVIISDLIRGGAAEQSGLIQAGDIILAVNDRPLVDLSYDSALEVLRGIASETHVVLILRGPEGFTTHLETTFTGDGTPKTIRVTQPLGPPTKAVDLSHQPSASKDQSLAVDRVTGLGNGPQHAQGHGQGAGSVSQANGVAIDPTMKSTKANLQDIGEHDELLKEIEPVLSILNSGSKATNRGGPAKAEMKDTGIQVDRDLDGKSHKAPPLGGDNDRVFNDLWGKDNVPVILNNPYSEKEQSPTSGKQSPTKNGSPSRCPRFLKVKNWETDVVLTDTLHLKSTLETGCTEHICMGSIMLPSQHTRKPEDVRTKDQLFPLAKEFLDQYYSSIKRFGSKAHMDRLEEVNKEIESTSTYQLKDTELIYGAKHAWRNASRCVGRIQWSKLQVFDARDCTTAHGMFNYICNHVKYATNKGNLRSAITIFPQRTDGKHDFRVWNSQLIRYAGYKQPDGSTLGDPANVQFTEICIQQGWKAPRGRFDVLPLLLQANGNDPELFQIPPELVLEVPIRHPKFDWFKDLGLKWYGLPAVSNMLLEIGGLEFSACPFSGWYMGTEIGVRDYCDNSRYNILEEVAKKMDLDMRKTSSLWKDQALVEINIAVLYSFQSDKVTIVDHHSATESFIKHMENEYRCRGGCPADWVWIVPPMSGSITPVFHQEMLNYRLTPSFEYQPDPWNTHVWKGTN

IC50 ([1]; dipeptide-like series) [µM] | IC50 ([3]; dipeptide-like series) [µM] | inhibition at 100 µM ([4]; dipeptide-like series) [%] | Kd [6] [µM] | Kd [7] [µM] | SMILES | Effect on insulin secretion [2] | further results
27.8 | 5.4 |  |  |  | CCSC(=N)NCCC[C@H](N)C(=O)N[C@H]1CCCN(Cc2cc([N+](=O)[O-])ccc2O)C1 [Compound 14] | dose-dependently stimulate glucose insulin secretion with better efficiency than L-NAME | 
 | 6 | < 50 |  |  | CCSC(=N)NCCC[C@H](N)C(=O)N[C@H]1CCCN(Cc2ccc(C(F)(F)F)c(Cl)c2)C1 [Compound 18] | dose-dependently stimulate glucose insulin secretion with better efficiency than L-NAME | inhibition at 100 µM ([1]; dipeptide-like series): < 50%; Reversal of LPS-induced reduction of cell viability ([5]; RAW 264.7, LPS 1 µg/mL): none partially reversed the LPS effect; Effect on cell viability (MTT) ([5]; RAW 264.7, absence of LPS, up to 100 μM): fully toxic
 | 7.7 | < 50 | 96 ± 36 | 5.2 ± 1.1 | CCSC(=N)NCCC[C@H](N)C(=O)N[C@H]1CCCN(Cc2ccccc2C(F)(F)F)C1 [Compound 19] |  | inhibition at 100 µM ([1]; dipeptide-like series): < 50%
11.9 | 12.7 | < 50 |  |  | CCSC(=N)NCCC[C@H](N)C(=O)N[C@H]1CCCN(Cc2ccc3ccccc3c2)C1 [Compound 22] | dose-dependently stimulate glucose insulin secretion with better efficiency than L-NAME | 
46.9 | 5.4 | < 50 | 92.5 ± 8.8 | 11.4 ± 3.8 | CCSC(=N)NCCC[C@H](N)C(=O)N[C@H]1CCCN(Cc2ccc(-c3ccccc3)cc2)C1 [Compound 23] |  | 
 |  |  | 42.4 ± 8.7 | 47.1 ± 13 | CCSC(=N)NCCC[C@H](N)c1nc(CCN(Cc2ccc3ccccc3c2)Cc2ccc3ccccc3c2)no1 [Compound 35] |  | IC50 ([1]; 1,2,4-oxadiazole series): 11.7 µM; inhibition at 100 µM ([4]; 1,2,4-oxadiazole series): < 50%; IC50 ([3]; 1,2,4-oxadiazole series): 0.4 µM; Selectivity for nNOS against eNOS ([3]; from IC50 values): > 250 fold; Selectivity for nNOS against iNOS ([3]; from IC50 values): approximately 30 fold
 |  |  |  |  | CCSC(=N)NCCC[C@H](N)c1nc(C)no1 [JMV3457] |  | IC50 [8]: 9.4 µM; IC50 [9]: 19 µM; IC50 [10]: 45 µM
 |  |  |  |  | CCSC(=N)NCCC[C@H](N)C(=O)NCCCN [JMV4246] |  | IC50 [8]: 6.6 µM; IC50 [9]: 48 µM; IC50 [10]: 52 µM
 |  |  |  |  | COC(=O)[C@@H](N)CCCNC(N)=N[N+](=O)[O-] [L-NAME, reference compound] | potentiated insulin release | 
